Source: the NIST ThermoML archive (doi:10.1016/j.jct.2017.05.022)
Numbers after ± are expanded uncertainties.

Experiments:
[1] = for specific volume / mass density: 101.33 kPa; for specific volume: X-ray diffraction; for mass density: Liquid, Vibrating tube method
[2] = Molar enthalpy of transition or fusion; conditions: Crystal; DSC
[3] = Solid-liquid equilibrium temperature; conditions: Crystal, DTA

O=C(OCCN1CCOCC1)c1cccnc1Nc1cccc(C(F)(F)F)c1
[1]
Conditions | Glass transition temperature [°C] | Normal melting temperature [°C] | specific volume [m3/kg]
100 K, Crystal | – | – | 0.0006857 ± 1e-06
125 K, Crystal | – | – | 0.0006872 ± 1e-06
150 K, Crystal | – | – | 0.0006912 ± 1.1e-06
175 K, Crystal | – | – | 0.000693 ± 1.1e-06
200 K, Crystal | – | – | 0.0006968 ± 1.1e-06
225 K, Crystal | – | – | 0.0006995 ± 1.1e-06
250 K, Crystal | – | – | 0.0007035 ± 1.1e-06
273 K, Crystal | – | – | 0.0007063 ± 1.1e-06
298.2 K, Crystal | – | – | 0.0007115 ± 1.1e-06
315 K, Crystal | – | – | 0.0007135 ± 1.1e-06
320 K, Crystal | – | – | 0.0007145 ± 1.1e-06
325 K, Crystal | – | – | 0.0007147 ± 1.1e-06
330 K, Crystal | – | – | 0.0007156 ± 1.1e-06
332 K, Crystal | – | – | 0.0007166 ± 1.1e-06
335 K, Crystal | – | – | 0.0007171 ± 1.1e-06
337 K, Crystal | – | – | 0.0007171 ± 1.1e-06
340 K, Crystal | – | – | 0.0007177 ± 1.1e-06
342 K, Crystal | – | – | 0.0007184 ± 1.1e-06
347 K, Crystal | – | – | 0.0007192 ± 1.1e-06
Crystal, DTA | – | 75.0 ± 0.9 | –
Glass, DSC | -23.7 ± 1.2 | – | –

Conditions | Solid-liquid equilibrium temperature [K] | mass density [kg/m3]
[1], 323.15 K | – | 1262.9 ± 0.5
[1], 325.65 K | – | 1260.6 ± 0.5
[1], 328.15 K | – | 1258.4 ± 0.5
[1], 330.65 K | – | 1256.2 ± 0.5
[1], 333.15 K | – | 1254 ± 0.5
[1], 335.15 K | – | 1252.2 ± 0.5
[1], 337.65 K | – | 1249.9 ± 0.5
[1], 340.15 K | – | 1247.7 ± 0.5
[1], 342.65 K | – | 1245.4 ± 0.5
[1], 345.15 K | – | 1243.2 ± 0.4
[1], 347.65 K | – | 1240.9 ± 0.4
[1], 350.15 K | – | 1238.7 ± 0.4
[1], 352.65 K | – | 1236.4 ± 0.4
[1], 355.16 K | – | 1234.2 ± 0.4
[1], 357.65 K | – | 1231.9 ± 0.4
[1], 360.15 K | – | 1229.7 ± 0.4
[1], 362.65 K | – | 1227.4 ± 0.4
[3], 100 kPa | 348.1 ± 0.8 | –
[3], 32000 kPa | 358.5 ± 3.1 | –
[3], 58000 kPa | 366.9 ± 3.1 | –
[3], 79000 kPa | 374.5 ± 3.1 | –
[3], 115000 kPa | 382.7 ± 3.1 | –
[3], 140000 kPa | 390.7 ± 3.1 | –
[3], 155000 kPa | 396 ± 3.1 | –
[3], 201000 kPa | 403.7 ± 3.1 | –
[3], 244000 kPa | 421.5 ± 3.1 | –

Conditions | Molar enthalpy of transition or fusion [kcal/mol]
[2] | 8.45 ± 0.359
